Reference: ChEMBL document CHEMBL5257025, “Artemisinin-Derived Dimers: Potent Antimalarial and Anticancer Agents” (J Med Chem, 2016)

Tests used:
[1] = test system: Plasmodium falciparum; assay: Antimalarial activity against Plasmodium falciparum NF54 assessed as inhibition of cell growth incubated for 72 hrs by SYBR Green I staining based fluorescence analysis; format: functional, organism-based; details: NF54, 72 h
[2] = test system: SK-MEL-2; assay: Antiproliferative activity against human SK-MEL-2 cells assessed as reduction in cell viability incubated for 48 hrs by MTT assay; format: functional, cell-based; details: SK-MEL-2, 48 h
[3] = test system: BT-474; assay: Antiproliferative activity against human BT-474 cells assessed as reduction in cell growth measured after 72 hrs by MTT assay; format: functional, cell-based; details: BT-474, 72 h
[4] = test system: MDA-MB-231; assay: Antiproliferative activity against human MDA-MB-231 cells assessed as reduction in cell viability measured after 48 hrs by MTT assay; format: functional, cell-based; details: MDA-MB-231, 48 h
[5] = test system: Plasmodium falciparum; assay: Antimalarial activity against Plasmodium falciparum HB3 assessed as inhibition of malarial growth; format: functional, organism-based
[6] = test system: Jurkat; assay: Antiproliferative activity against human Jurkat cells assessed as reduction in cell viability incubated for 48 hrs by MTT assay; format: functional, cell-based
[7] = test system: Plasmodium falciparum; assay: Antimalarial activity against Plasmodium falciparum K1 assessed as inhibition of malarial growth; format: functional, organism-based
[8] = test system: HL-60; assay: Growth inhibition of human HL-60 cells assessed as cell growth inhibition measured after 48 hrs by MTT assay; format: functional
[9] = test system: TRAMP-C1A; assay: Cytotoxicity against mouse TRAMP-C1A cells assessed as inhibition of cell growth measured after 72 hrs by MTT assay; format: functional, cell-based
[10] = test system: C2G cell line; assay: Cytotoxicity against mouse C2G cells assessed as inhibition of cell growth measured after 72 hrs by MTT assay; format: functional, cell-based
[11] = test system: C2D cell line; assay: Cytotoxicity against mouse C2D cell line assessed as inhibition of cell growth measured after 72 hrs by MTT assay; format: functional, cell-based
[12] = test system: Plasmodium falciparum; assay: Antimalarial activity against Plasmodium falciparum NF54 assessed as reduction in cell growth; format: functional, organism-based
[13] = test system: Plasmodium falciparum; assay: Antimalarial activity against Plasmodium falciparum 3D7 assessed as inhibition of malarial growth; format: functional, organism-based
[14] = test system: TK-10; assay: Growth inhibition of human TK-10 cells assessed as cell growth inhibition measured after 48 hrs by MTT assay; format: functional
[15] = test system: UACC-62; assay: Growth inhibition of human UACC-62 cells assessed as cell growth inhibition measured after 48 hrs by MTT assay; format: functional
[16] = test system: MCF7; assay: Growth inhibition of human MCF7 cells assessed as cell growth inhibition incubated for 48 hrs by MTT assay; format: functional
[17] = test system: BT-549; assay: Antiproliferative activity against human BT-549 cells assessed as reduction in cell viability incubated for 48 hrs by MTT assay; format: functional, cell-based; details: BT-549, 48 h
[18] = test system: HCT-116; assay: Antiproliferative activity against human HCT-116 cells assessed as growth after 48 hrs by MTT assay; format: functional, cell-based; details: HCT-116, 48 h
[19] = test system: HeLa; assay: Antiproliferative activity against human Hela cells assessed as cell growth inhibition measured after 48 hrs by MTT assay; format: functional, cell-based
[20] = Cytotoxicity against human HFF cells assessed as cell growth inhibition measured after 48 hrs by MTT assay; format: toxicity, cell-based
[21] = Antiproliferative activity against human 1205Lu cells assessed as reduction in cell growth; format: functional, cell-based
[22] = test system: TRAMP-C2H; assay: Cytotoxicity against mouse TRAMP-C2H cells assessed as inhibition of cell growth measured after 72 hs by MTT assay; format: functional, cell-based

`C[C@H]1[C@@H](CC(F)(F)c2ccc(C(F)(F)C[C@H]3O[C@H]4O[C@@]5(C)CC[C@H]6[C@H](C)CC[C@@H]([C@H]3C)[C@@]46OO5)cc2)O[C@H]2O[C@@]3(C)CC[C@H]4[C@H](C)CC[C@@H]1[C@@]24OO3` gave an IC50 [1] of 28 nM.

With `C[C@@H]1CC[C@H]2[C@@H](C)C(OCC(=O)COC3O[C@@H]4O[C@]5(C)CC[C@@H]6[C@@H](C)CC[C@H]([C@@H]3C)[C@]46OO5)O[C@H]3O[C@@]4(C)CC[C@@H]1[C@]32OO4` (some centres undefined) the IC50 [2] was 560 nM.

Compound `C[C@@H]1CC[C@H]2[C@@H](C)C(CC(CC3O[C@@H]4O[C@]5(C)CC[C@@H]6[C@@H](C)CC[C@H]([C@@H]3C)[C@]46OO5)CN3CCN(C)CC3)O[C@H]3O[C@@]4(C)CC[C@@H]1[C@]32OO4` (some centres undefined) has an IC50 [3] of 110 nM and an IC50 [4] of 3300 nM.

Work on `COP(=O)(OCCCC1O[C@H]2O[C@@]3(C)CC[C@H]4[C@H](C)CC[C@@H]([C@H]1C)[C@@]24OO3)OCCC1O[C@H]2O[C@@]3(C)CC[C@H]4[C@H](C)CC[C@@H]([C@H]1C)[C@@]24OO3` (some centres undefined) yielded an IC50 [5] of 0.09 nM, an IC50 [6] of 7700 nM and an IC50 [7] of 0.2 nM. It also gave a GI50 [8] of 143 nM.

Work on `C[C@@H]1CC[C@H]2[C@@H](C)C(CC(CC3O[C@@H]4O[C@]5(C)CC[C@@H]6[C@@H](C)CC[C@H]([C@@H]3C)[C@]46OO5)C(=O)O)O[C@H]3O[C@@]4(C)CC[C@@H]1[C@]32OO4` (some centres undefined) yielded an IC50 [9] of 159 nM, an IC50 [10] of 134 nM and an IC50 [11] of 231 nM. For the same compound, the IC50 [12] was 2.4 nM.

For `C[C@@H]1CC[C@H]2[C@@H](C)C(OCCC(CCCNc3ccnc4ccc(Cl)cc34)CCOC3O[C@@H]4O[C@]5(C)CC[C@@H]6[C@@H](C)CC[C@H]([C@@H]3C)[C@]46OO5)O[C@H]3O[C@@]4(C)CC[C@@H]1[C@]32OO4` (some centres undefined), the IC50 [13] was 8.7 nM, the GI50 [14] was 80 nM and the GI50 [15] was 50 nM. The GI50 [16] was 30 nM.

Work on `C[C@@H]1CC[C@H]2[C@@H](C)C(CC(CC3O[C@@H]4O[C@]5(C)CC[C@@H]6[C@@H](C)CC[C@H]([C@@H]3C)[C@]46OO5)CN3CCN(c4cccnc4)CC3)O[C@H]3O[C@@]4(C)CC[C@@H]1[C@]32OO4` (some centres undefined) yielded an IC50 [3] of 70 nM and an IC50 [4] of 10000 nM.

Compound `C[C@@H]1CC[C@H]2[C@@H](C)C(OCC(O)COC3O[C@@H]4O[C@]5(C)CC[C@@H]6[C@@H](C)CC[C@H]([C@@H]3C)[C@]46OO5)O[C@H]3O[C@@]4(C)CC[C@@H]1[C@]32OO4` (some centres undefined) has an IC50 [17] of 480 nM.

In the case of `C[C@@H]1CC[C@H]2[C@@H](C)C(CC(CC3O[C@@H]4O[C@]5(C)CC[C@@H]6[C@@H](C)CC[C@H]([C@@H]3C)[C@]46OO5)CS(=O)(=O)c3ccc(CO)cc3)O[C@H]3O[C@@]4(C)CC[C@@H]1[C@]32OO4` (some centres undefined), the IC50 [18] is reported as 70 nM, the IC50 [19] is reported as 560 nM and the IC50 at 48 h [20] is reported as 4900 nM. For the same compound, the IC50 [21] was 100 nM.

`C[C@@H]1CC[C@H]2[C@@H](C)C(CC(COP(=O)(Oc3ccccc3)Oc3ccccc3)CC3O[C@@H]4O[C@]5(C)CC[C@@H]6[C@@H](C)CC[C@H]([C@@H]3C)[C@]46OO5)O[C@H]3O[C@@]4(C)CC[C@@H]1[C@]32OO4` (some centres undefined) showed an IC50 [18] of 40 nM, an IC50 [19] of 190 nM and an IC50 at 48 h [20] of 55800 nM. It also gave an IC50 [21] of 60 nM.

`C[C@@H]1CC[C@H]2[C@@H](C)C(OCCCN3CC[N+](CCCOC4O[C@@H]5O[C@]6(C)CC[C@@H]7[C@@H](C)CC[C@H]([C@@H]4C)[C@]57OO6)(CCNc4ccnc5cc(Cl)ccc45)CC3)O[C@H]3O[C@@]4(C)CC[C@@H]1[C@]32OO4` (some centres undefined) gave an IC50 [13] of 29.5 nM, a GI50 [14] of 80 nM and a GI50 [15] of 40 nM. The GI50 [16] was 30 nM.

For `C[C@H]1[C@H](OC(=O)CCC(=O)O)O[C@@H]2O[C@@]3(C)CC[C@H]4[C@H](C)CC[C@@H]1[C@@]24OO3` [ARTESUNATE], the IC50 [18] was 7100 nM, the IC50 [19] was 7100 nM and the CC50 at 48 h ([20]; time 48 hrs, read-out: TC50) was 717000 nM. For the same compound, the IC50 [21] was 7100 nM.

For `Nc1ccn([C@@H]2O[C@H](CO)[C@@H](O)C2(F)F)c(=O)n1` [GEMCITABINE], the IC50 [22] was 3.7 nM, the IC50 [9] was 3.7 nM and the IC50 [10] was 3.7 nM. The IC50 [11] was 3.7 nM.
